According to patent US5776944A, “7-(4-aminomethyl-3-methyloxyiminopyrroplidin-1-yl)-1-cyclopropyl-6-flu oro-4-oxo-1,4-dihydro-1,8-naphthyridine-3-carboxylic acid and the process for the preparation thereof” (LG Chemical Ltd., priority 1994, dated 1998):
≈ marks a conversion by molar mass, not a printed value.

Key:
Format in all cases: cell-based
[1] = system: Staphylococcus aureus 6538p; experiment: In vitro antibacterial activity (MIC, agar dilution), Biological Example 1; settings: 18 h, Table 25, read-out: Minimum Inhibitory Concentration
[2] = system: Staphylococcus aureus giorgio; experiment: as above; settings: 18 h, Table 25, read-out: Minimum Inhibitory Concentration
[3] = system: Staphylococcus aureus 77; experiment: as above; settings: 18 h; Staphylococcus aureus 77, Table 25; read-out: Minimum Inhibitory Concentration
[4] = system: Staphylococcus aureus 241; experiment: as above; settings: 18 h; Staphylococcus aureus 241, Table 25; read-out: Minimum Inhibitory Concentration
[5] = system: Staphylococcus epidermidis 887E; experiment: as above; settings: 18 h, Table 25, read-out: Minimum Inhibitory Concentration
[6] = system: Staphylococcus epidermidis 178; experiment: as above; settings: 18 h; Staphylococcus epidermidis 178, Table 25; read-out: Minimum Inhibitory Concentration
[7] = system: Streptococcus faecalis 29212; experiment: as above; settings: Enterococcus faecalis, 18 h; Streptococcus faecalis 29212, Table 25; read-out: Minimum Inhibitory Concentration
[8] = system: Bacillus subtilis 6633; experiment: as above; settings: 18 h; Bacillus subtilis 6633, Table 25; read-out: Minimum Inhibitory Concentration
[9] = system: Micrococcus luteus 9341; experiment: as above; settings: 18 h; Micrococcus luteus 9341, Table 25; read-out: Minimum Inhibitory Concentration
[10] = system: Escherichia coli 10536; experiment: as above; settings: 18 h; Escherichia coli 10536, Table 25; read-out: Minimum Inhibitory Concentration
[11] = system: Escherichia coli 3190Y; experiment: as above; settings: 18 h, Table 25, read-out: Minimum Inhibitory Concentration
[12] = system: Escherichia coli 851E; experiment: as above; settings: 18 h, Table 25, read-out: Minimum Inhibitory Concentration
[13] = system: Escherichia coli TEM3 3455E; experiment: microbe, parasite or virus in culture; settings: TEM33455E, 18 h, read-out: Minimum Inhibitory Concentration
[14] = system: Escherichia coli TEM5 3739E; experiment: microbe, parasite or virus in culture; settings: TEM53739E, 18 h, read-out: Minimum Inhibitory Concentration
[15] = system: Escherichia coli TEM9 2639E; experiment: microbe, parasite or virus in culture; settings: TEM92639E, 18 h, read-out: Minimum Inhibitory Concentration
[16] = system: Pseudomonas aeruginosa 1912E; experiment: In vitro antibacterial activity (MIC, agar dilution), Biological Example 1; settings: 18 h; Pseudomonas aeruginosa 1912E, Table 25; read-out: Minimum Inhibitory Concentration
[17] = system: Pseudomonas aeruginosa 10145; experiment: as above; settings: 18 h; Pseudomonas aeruginosa 10145, Table 25; read-out: Minimum Inhibitory Concentration
[18] = system: Acinetobacter calcoaceticus 15473; experiment: as above; settings: 18 h; Acinetobacter calcoaceticus 15473, Table 25; read-out: Minimum Inhibitory Concentration
[19] = system: Citrobacter diversus 2046E; experiment: as above; settings: Citrobacter koseri, 18 h, Table 25, read-out: Minimum Inhibitory Concentration
[20] = system: Enterobacter cloacae 1194E; experiment: microbe, parasite or virus in culture; settings: 18 h, read-out: Minimum Inhibitory Concentration
[21] = system: Enterobacter cloacae P99; experiment: microbe, parasite or virus in culture; settings: P99, 18 h, read-out: Minimum Inhibitory Concentration
[22] = system: Klebsiella aerogenes 1976E; experiment: In vitro antibacterial activity (MIC, agar dilution), Biological Example 1; settings: 18 h, Table 25, read-out: Minimum Inhibitory Concentration
[23] = system: Klebsiella aerogenes 1082E; experiment: as above; settings: 18 h, Table 25, read-out: Minimum Inhibitory Concentration
[24] = system: Salmonella typimurium 14028; experiment: as above; settings: 18 h; Salmonella typimurium 14028, Table 25; read-out: Minimum Inhibitory Concentration

SMILES	MIC [1]	MIC [2]	MIC [3]	MIC [4]	MIC [5]	MIC [6]	MIC [7]	MIC [8]	MIC [9]	MIC [10]	MIC [11]	MIC [12]	MIC [13]	MIC [14]	MIC [15]	MIC [16]	MIC [17]	MIC [18]	MIC [19]	MIC [20]	other results
C#CCON=C1CN(c2nc3c(cc2F)c(=O)c(C(=O)O)cn3C2CC2)CC1CN (stereo not drawn) [Example 103]	≤ 0.008 µg/mL	≤ 0.008 µg/mL	≤ 0.008 µg/mL	4 µg/mL (≈ 9.68 µM)	≤ 0.008 µg/mL	4 µg/mL (≈ 9.68 µM)	0.031 µg/mL (≈ 0.075 µM)	≤ 0.008 µg/mL	0.13 µg/mL (≈ 0.314 µM)	≤ 0.008 µg/mL	≤ 0.008 µg/mL	≤ 0.008 µg/mL	0.13 µg/mL (≈ 0.314 µM)	0.063 µg/mL (≈ 0.152 µM)	0.031 µg/mL (≈ 0.075 µM)	0.5 µg/mL (≈ 1.21 µM)	0.5 µg/mL (≈ 1.21 µM)	0.031 µg/mL (≈ 0.075 µM)	0.13 µg/mL (≈ 0.314 µM)	0.016 µg/mL (≈ 0.0387 µM)	MIC [21]: ≤ 0.008 µg/mL; MIC [22]: 0.063 µg/mL (≈ 0.152 µM); MIC [23]: 0.031 µg/mL (≈ 0.075 µM); MIC [24]: 0.031 µg/mL (≈ 0.075 µM)
C#CCCON=C1CN(c2nc3c(cc2F)c(=O)c(C(=O)O)cn3C2CC2)CC1CN (stereo not drawn) [Example 104]	≤ 0.008 µg/mL	≤ 0.008 µg/mL	≤ 0.008 µg/mL	8 µg/mL (≈ 18.7 µM)	0.016 µg/mL (≈ 0.0374 µM)	4 µg/mL (≈ 9.36 µM)	0.031 µg/mL (≈ 0.0725 µM)	≤ 0.008 µg/mL	0.13 µg/mL (≈ 0.304 µM)	≤ 0.008 µg/mL	≤ 0.008 µg/mL	≤ 0.008 µg/mL	0.25 µg/mL (≈ 0.585 µM)	0.13 µg/mL (≈ 0.304 µM)	0.031 µg/mL (≈ 0.0725 µM)	1 µg/mL (≈ 2.34 µM)	1 µg/mL (≈ 2.34 µM)	≤ 0.008 µg/mL	≤ 0.008 µg/mL	≤ 0.008 µg/mL	MIC [21]: 0.016 µg/mL (≈ 0.0374 µM); MIC [22]: 0.13 µg/mL (≈ 0.304 µM); MIC [23]: 0.031 µg/mL (≈ 0.0725 µM); MIC [24]: 0.031 µg/mL (≈ 0.0725 µM)
CC(C)CON=C1CN(c2nc3c(cc2F)c(=O)c(C(=O)O)cn3C2CC2)CC1CN (stereo not drawn) [Example 102]	0.016 µg/mL (≈ 0.0371 µM)	≤ 0.008 µg/mL	0.016 µg/mL (≈ 0.0371 µM)	4 µg/mL (≈ 9.27 µM)	≤ 0.008 µg/mL	1 µg/mL (≈ 2.32 µM)	0.063 µg/mL (≈ 0.146 µM)	≤ 0.008 µg/mL	0.063 µg/mL (≈ 0.146 µM)	≤ 0.008 µg/mL	≤ 0.008 µg/mL	0.063 µg/mL (≈ 0.146 µM)	0.5 µg/mL (≈ 1.16 µM)	0.25 µg/mL (≈ 0.579 µM)	0.063 µg/mL (≈ 0.146 µM)	2 µg/mL (≈ 4.64 µM)	2 µg/mL (≈ 4.64 µM)	0.063 µg/mL (≈ 0.146 µM)	0.13 µg/mL (≈ 0.301 µM)	0.25 µg/mL (≈ 0.579 µM)	MIC [21]: 0.031 µg/mL (≈ 0.0718 µM); MIC [22]: 0.5 µg/mL (≈ 1.16 µM); MIC [23]: 0.25 µg/mL (≈ 0.579 µM); MIC [24]: 0.25 µg/mL (≈ 0.579 µM)
NCC1CN(c2c(F)c(N)c3c(=O)c(C(=O)O)cn(C4CC4)c3c2F)CC1=NOCc1ccccc1 (stereo not drawn) [Example 56, 5-amino-7-(4-aminomethyl-3-benzyloxylmino-pyrrolidin-1-yl)-1-cyclopropyl6,8-difluoro-1,4-dihydro-4-oxoquinoline-3-carboxylic acid]	≤ 0.008 µg/mL	≤ 0.008 µg/mL	≤ 0.008 µg/mL	2 µg/mL (≈ 4.02 µM)	≤ 0.008 µg/mL	2 µg/mL (≈ 4.02 µM)	0.016 µg/mL (≈ 0.0322 µM)	≤ 0.008 µg/mL	0.063 µg/mL (≈ 0.127 µM)	≤ 0.008 µg/mL	≤ 0.008 µg/mL	≤ 0.008 µg/mL	0.5 µg/mL (≈ 1.01 µM)	0.25 µg/mL (≈ 0.503 µM)	0.063 µg/mL (≈ 0.127 µM)	2 µg/mL (≈ 4.02 µM)	2 µg/mL (≈ 4.02 µM)	≤ 0.008 µg/mL	0.016 µg/mL (≈ 0.0322 µM)	0.031 µg/mL (≈ 0.0623 µM)	MIC [21]: ≤ 0.008 µg/mL; MIC [22]: 0.5 µg/mL (≈ 1.01 µM); MIC [23]: 0.016 µg/mL (≈ 0.0322 µM); MIC [24]: 0.031 µg/mL (≈ 0.0623 µM)
